Results reported in patent US8822469B2, “Pyrrolo[2,3-B]pyrazines useful as inhibitors of ATR kinase” (Vertex Pharmaceuticals Incorporated, priority 2011, dated 2014).

Each compound was assayed against T1, full-length ATR (Homo sapiens, UniProt Q13535) (assay: ATR Inhibition Assay (radioactive-phosphate incorporation)). Conditions: Ki(app); 5 nM full-length ATR, 10 μM [γ-33P]ATP, 800 μM target peptide, 25° C.
T1 construct: Assays were carried out at 25° C. in the presence of 5 nM full-length ATR
Type: biochemical
Protocol: Compounds were screened for their ability to inhibit ATR kinase using a radioactive-phosphate incorporation assay. Assays were carried out in a mixture of 50 mM Tris/HCl (pH 7.5), 10 mM MgCl2 and 1 mM DTT. Final substrate concentrations were 10 μM [γ-33P]ATP (3mCi 33P ATP/mmol ATP, Perkin Elmer) and 800 μM target peptide (ASELPASQPQPFSAKKK).
Assays were carried out at 25° C. in the presence of 5 nM full-length ATR. An assay stock buffer solution was prepared containing all of the reagents listed above, with the exception of ATP and the test compound of interest. 13.5 μL of the stock solution was placed in a 96 well plate followed by addition of 2 μL of DMSO stock containing serial dilutions of the test compound (typically starting from a final concentration of 15 μM with 3-fold serial dilutions) in duplicate (final DMSO concentration 7%). The plate was pre-incubated for 10 minutes at 25° C. and the reaction initiated by addition of 15 μL [γ-33P]ATP (final concentration 10 μM).
The reaction was stopped after […] by the addition of 30 μL 0.1M phosphoric acid containing 2 mM ATP. A multiscreen phosphocellulose filter 96-well plate (Millipore, Cat no. MAPHN0B50) was pretreated with 100 μL 0.2M phosphoric acid prior to the addition of 45 μL of the stopped assay mixture. The plate was washed with 5×200 μL 0.2M phosphoric acid. After drying, 100 μL Optiphase ‘SuperMix’ liquid scintillation cocktail (Perkin Elmer) was added to the well prior to scintillation counting (1450 Microbeta Liquid Scintillation Counter, Wallac).
After removing mean background values for all of the data points, Ki(app) data were calculated from non-linear regression analysis of the initial rate data using the Prism software package (GraphPad Prism version 3.0cx for Macintosh, GraphPad Software, San Diego Calif., USA).

T1 sequence (Q13535 whole entry): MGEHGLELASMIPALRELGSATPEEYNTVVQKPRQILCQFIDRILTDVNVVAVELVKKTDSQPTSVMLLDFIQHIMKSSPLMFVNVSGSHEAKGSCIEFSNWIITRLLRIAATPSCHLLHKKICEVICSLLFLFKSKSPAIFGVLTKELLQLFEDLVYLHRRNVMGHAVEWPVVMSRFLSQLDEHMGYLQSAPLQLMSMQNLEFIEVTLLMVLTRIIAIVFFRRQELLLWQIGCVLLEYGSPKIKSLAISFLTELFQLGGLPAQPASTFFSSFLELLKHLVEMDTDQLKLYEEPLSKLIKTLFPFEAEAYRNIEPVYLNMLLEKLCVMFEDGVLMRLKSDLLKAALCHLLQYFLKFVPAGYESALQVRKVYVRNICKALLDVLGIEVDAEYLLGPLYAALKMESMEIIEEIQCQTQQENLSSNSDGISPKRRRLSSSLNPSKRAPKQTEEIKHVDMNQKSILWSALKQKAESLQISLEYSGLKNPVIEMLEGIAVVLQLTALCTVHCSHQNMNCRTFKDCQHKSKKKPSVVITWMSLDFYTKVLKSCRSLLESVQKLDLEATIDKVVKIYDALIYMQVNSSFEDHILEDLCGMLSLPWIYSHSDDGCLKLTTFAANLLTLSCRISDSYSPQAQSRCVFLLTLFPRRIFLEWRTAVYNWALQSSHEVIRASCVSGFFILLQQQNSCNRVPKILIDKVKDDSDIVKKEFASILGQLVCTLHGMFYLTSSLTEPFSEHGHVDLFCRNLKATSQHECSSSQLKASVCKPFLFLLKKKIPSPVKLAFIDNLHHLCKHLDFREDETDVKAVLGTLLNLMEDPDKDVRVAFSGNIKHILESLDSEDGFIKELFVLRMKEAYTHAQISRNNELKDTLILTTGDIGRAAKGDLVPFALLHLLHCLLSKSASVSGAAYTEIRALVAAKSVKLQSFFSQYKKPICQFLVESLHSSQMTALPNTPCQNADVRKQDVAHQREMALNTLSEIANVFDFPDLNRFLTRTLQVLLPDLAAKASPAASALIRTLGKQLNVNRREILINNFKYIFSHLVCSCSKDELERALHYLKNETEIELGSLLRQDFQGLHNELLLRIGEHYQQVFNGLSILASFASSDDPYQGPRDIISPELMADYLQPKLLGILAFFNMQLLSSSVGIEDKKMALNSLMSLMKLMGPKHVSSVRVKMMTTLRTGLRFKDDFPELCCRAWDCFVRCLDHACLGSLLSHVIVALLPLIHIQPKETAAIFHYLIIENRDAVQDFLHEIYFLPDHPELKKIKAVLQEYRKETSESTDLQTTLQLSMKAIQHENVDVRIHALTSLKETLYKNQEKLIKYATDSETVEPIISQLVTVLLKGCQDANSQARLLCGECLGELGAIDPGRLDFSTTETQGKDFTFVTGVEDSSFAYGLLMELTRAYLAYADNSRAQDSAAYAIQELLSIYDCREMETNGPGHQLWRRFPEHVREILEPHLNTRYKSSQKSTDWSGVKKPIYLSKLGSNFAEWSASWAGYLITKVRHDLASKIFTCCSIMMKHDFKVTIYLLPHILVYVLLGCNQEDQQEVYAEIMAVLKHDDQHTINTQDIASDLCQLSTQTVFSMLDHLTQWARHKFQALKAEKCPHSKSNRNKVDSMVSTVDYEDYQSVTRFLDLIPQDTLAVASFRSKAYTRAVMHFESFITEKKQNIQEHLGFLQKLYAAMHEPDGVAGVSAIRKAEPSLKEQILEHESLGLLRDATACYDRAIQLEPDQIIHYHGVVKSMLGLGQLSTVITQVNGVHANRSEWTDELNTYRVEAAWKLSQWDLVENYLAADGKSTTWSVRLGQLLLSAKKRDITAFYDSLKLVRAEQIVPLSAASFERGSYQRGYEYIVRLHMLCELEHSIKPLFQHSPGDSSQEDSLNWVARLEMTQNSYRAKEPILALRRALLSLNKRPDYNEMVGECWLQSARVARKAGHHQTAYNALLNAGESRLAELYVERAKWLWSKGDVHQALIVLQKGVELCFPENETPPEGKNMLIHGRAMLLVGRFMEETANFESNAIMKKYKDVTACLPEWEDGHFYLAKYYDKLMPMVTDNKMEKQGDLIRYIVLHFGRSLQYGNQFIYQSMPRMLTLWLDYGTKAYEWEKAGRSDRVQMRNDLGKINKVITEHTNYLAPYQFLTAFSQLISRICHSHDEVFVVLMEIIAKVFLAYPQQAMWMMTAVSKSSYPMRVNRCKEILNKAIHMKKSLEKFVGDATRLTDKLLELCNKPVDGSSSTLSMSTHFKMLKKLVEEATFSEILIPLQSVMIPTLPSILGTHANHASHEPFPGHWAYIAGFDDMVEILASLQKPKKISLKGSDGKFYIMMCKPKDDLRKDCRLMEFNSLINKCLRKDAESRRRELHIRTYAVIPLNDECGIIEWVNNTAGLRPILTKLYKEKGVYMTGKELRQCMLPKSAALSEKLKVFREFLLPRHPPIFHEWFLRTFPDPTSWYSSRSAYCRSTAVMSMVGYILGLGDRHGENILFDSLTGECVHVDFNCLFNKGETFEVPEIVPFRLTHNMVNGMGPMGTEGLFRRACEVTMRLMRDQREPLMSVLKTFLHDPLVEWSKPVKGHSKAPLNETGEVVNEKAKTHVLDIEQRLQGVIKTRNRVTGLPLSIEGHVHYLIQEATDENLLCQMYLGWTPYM

Row | Structure (SMILES) | Ki | ATR Inhibition Ki
1 | CC(C)S(=O)(=O)c1ccc(-c2cnc3[nH]cc(NC(=O)c4ccccc4)c3n2)cc1 [Compound I-1, N-(2-(4-(isopropylsulfonyl)phenyl)-5H-pyrrolo[2,3-b]pyrazin-7-yl)benzamide] | ≤ 10 nM | 
2 | CC(C)S(=O)(=O)c1ccc(-c2cnc3[nH]cc(NC(=O)c4cccc(N)c4)c3n2)cc1 [Compound I-2, 3-amino-N-[2-(4-isopropylsulfonylphenyl)-5H-pyrrolo[2,3-b]pyrazin-7-yl]benzamide] | ≤ 10 nM | 
3 | CC(C)S(=O)(=O)c1ccc(-c2cnc3[nH]cc(NC(=O)c4ccc(N)cc4)c3n2)cc1 [Compound I-3, 4-amino-N-[2-(4-isopropylsulfonylphenyl)-5H-pyrrolo[2,3-b]pyrazin-7-yl]benzamide] | 10 to 100 nM | 
4 | CNCc1ccc(C(=O)Nc2c[nH]c3ncc(-c4ccc(S(=O)(=O)C(C)C)cc4)nc23)cc1 [Compound I-4, N-[2-(4-isopropylsulfonylphenyl)-5H-pyrrolo[2,3-b]pyrazin-7-yl]-4-(methylaminomethyl)benzamide] | ≤ 10 nM | 
5 | CC(C)S(=O)(=O)c1ccc(-c2cnc3[nH]cc(NC(=O)c4ccc(CN[C@H]5CCOC5)cc4)c3n2)cc1 [Compound I-5, N-[2-(4-isopropylsulfonylphenyl)-5H-pyrrolo[2,3-b]pyrazin-7-yl]-4-[[[(3S)-tetrahydrofuran-3-yl]amino]methyl]benzamide] | ≤ 10 nM | 
6 | CNCc1cccc(C(=O)Nc2c[nH]c3ncc(-c4ccc(S(=O)(=O)C(C)C)cc4)nc23)c1 [Compound I-6, N-[2-(4-isopropylsulfonylphenyl)-5H-pyrrolo[2,3-b]pyrazin-7-yl]-3-(methylaminomethyl)benzamide] | ≤ 10 nM | 
7 | CC(C)S(=O)(=O)c1ccc(-c2cnc3[nH]cc(NC(=O)c4cccc(C(=O)O)c4)c3n2)cc1 [Compound I-7, 3-[[2-(4-isopropylsulfonylphenyl)-5H-pyrrolo[2,3-b]pyrazin-7-yl]carbamoyl]benzoic acid] | 100 to 500 nM | 
8 | CC(CCO)S(=O)(=O)c1ccc(-c2cnc3[nH]cc(NC(=O)c4ccccc4)c3n2)cc1 (stereo not drawn) [Compound I-8] | ≤ 10 nM | 
9 | CC(C)C(=O)Nc1c[nH]c2ncc(-c3ccc(S(=O)(=O)C(C)C)cc3)nc12 [Compound I-9, N-(2-(4-(isopropylsulfonyl)phenyl)-5H-pyrrolo[2,3-b]pyrazin-7-yl)isobutyramide] | 100 to 500 nM | 
10 | CC(C)S(=O)(=O)c1ccc(-c2cnc3[nH]cc(NC(=O)Cc4ccccc4)c3n2)cc1 [Compound I-10, N-[2-(4-isopropylsulfonylphenyl)-5H-pyrrolo[2,3-b]pyrazin-7-yl]-2-phenyl-acetamide] | 100 to 500 nM | 
11 | COc1ccccc1C(=O)Nc1c[nH]c2ncc(-c3ccc(S(=O)(=O)C(C)C)cc3)nc12 [Compound I-11, N-[2-(4-isopropylsulfonylphenyl)-5H-pyrrolo[2,3-b]pyrazin-7-yl]-2-methoxy-benzamide] |  | none
12 | CC(C)S(=O)(=O)c1ccc(-c2cnc3[nH]cc(NC(=O)c4cccc(CN)c4)c3n2)cc1 [Compound I-12, 3-(aminomethyl)-N-[2-(4-isopropylsulfonylphenyl)-5H-pyrrolo[2,3-b]pyrazin-7-yl]benzamide] | 10 to 100 nM | 
13 | CC(C)S(=O)(=O)c1ccc(-c2cnc3[nH]cc(NC(=O)c4cccc(Cl)c4)c3n2)cc1 [Compound I-13] | 10 to 100 nM | 
14 | CC(C)S(=O)(=O)c1ccc(-c2cnc3[nH]cc(NC(=O)c4ccccc4O)c3n2)cc1 [Compound I-14, 2-hydroxy-N-(2-(4-(isopropylsulfonyl)phenyl)-5H-pyrrolo[2,3-b]pyrazin-7-yl)benzamide] | ≤ 10 nM | 
15 | CC(C)S(=O)(=O)c1ccc(-c2cnc3[nH]cc(NC(=O)c4ccccc4F)c3n2)cc1 [Compound I-15, 2-fluoro-N-[2-(4-isopropylsulfonylphenyl)-5H-pyrrolo[2,3-b]pyrazin-7-yl]benzamide] | 10 to 100 nM | 
16 | CC(C)S(=O)(=O)c1ccc(-c2cnc3[nH]cc(NC(=O)c4ccc(Cl)cc4)c3n2)cc1 [Compound I-16, 4-chloro-N-[2-(4-isopropylsulfonylphenyl)-5H-pyrrolo[2,3-b]pyrazin-7-yl]benzamide] | 10 to 100 nM | 
17 | CC(C)S(=O)(=O)c1ccc(-c2cnc3[nH]cc(NC(=O)c4ccncc4)c3n2)cc1 [Compound I-17, N-[2-(4-isopropylsulfonylphenyl)-5H-pyrrolo[2,3-b]pyrazin-7-yl]pyridine-4-carboxamide] | 10 to 100 nM | 
18 | CC(C)S(=O)(=O)c1ccc(-c2cnc3[nH]cc(NC(=O)c4ccc(O)cc4)c3n2)cc1 [Compound I-18, 4-hydroxy-N-[2-(4-isopropylsulfonylphenyl)-5H-pyrrolo[2,3-b]pyrazin-7-yl]benzamide] | ≤ 10 nM | 
19 | CC(C)S(=O)(=O)c1ccc(-c2cnc3[nH]cc(NS(=O)(=O)c4ccccc4)c3n2)cc1 [Compound I-19] | 100 to 500 nM | 
20 | CC(C)S(=O)(=O)c1ccc(-c2cnc3[nH]cc(NC(=O)c4ccc(N5CCC(N)CC5)cc4)c3n2)cc1 [Compound I-20, 4-(4-amino-1-piperidyl)-N-[2-(4-isopropylsulfonylphenyl)-5H-pyrrolo[2,3-b]pyrazin-7-yl]benzamide] | 10 to 100 nM | 
21 | CC(C)S(=O)(=O)c1ccc(-c2cnc3[nH]cc(NC(=O)c4cccc(C5CNCCN5)c4)c3n2)cc1 (stereo not drawn) [Compound I-21, N-[2-(4-isopropylsulfonylphenyl)-5H-pyrrolo[2,3-b]pyrazin-7-yl]-3-piperazin-2-yl-benzamide] | 10 to 100 nM | 
22 | CC(C)S(=O)(=O)c1ccc(-c2cnc3[nH]cc(NC(=O)c4ccc(N5CC[C@H](N)C5)cc4)c3n2)cc1 [Compound I-22, 4-[(3S)-3-aminopyrrolidin-1-yl]-N-[2-(4-isopropylsulfonylphenyl)-5H-pyrrolo[2,3-b]pyrazin-7-yl]benzamide] | ≤ 10 nM | 
23 | CC(C)S(=O)(=O)c1ccc(-c2cnc3[nH]cc(NC(=O)c4ccc(N5CCC[C@@H](N)C5)cc4)c3n2)cc1 [Compound I-23, 4-[(3R)-3-amino-1-piperidyl]-N-[2-(4-isopropylsulfonylphenyl)-5H-pyrrolo[2,3-b]pyrazin-7-yl]benzamide] | ≤ 10 nM | 
24 | CC(C)S(=O)(=O)c1ccc(-c2cnc3[nH]cc(NC(=O)c4ccc5c(c4)CNC5)c3n2)cc1 [Compound I-24, N-[2-(4-isopropylsulfonylphenyl)-5H-pyrrolo[2,3-b]pyrazin-7-yl]isoindoline-5-carboxamide] | ≤ 10 nM | 
25 | CC(C)S(=O)(=O)c1ccc(-c2cnc3[nH]cc(NC(=O)c4ccc5c(c4)CNCC5)c3n2)cc1 [Compound I-25, N-[2-(4-isopropylsulfonylphenyl)-5H-pyrrolo[2,3-b]pyrazin-7-yl]-1,2,3,4-tetrahydroisoquinoline-7-carboxamide] | ≤ 10 nM | 
26 | CC(C)S(=O)(=O)c1ccc(-c2cnc3[nH]cc(NC(=O)c4cc5c(s4)CCNC5)c3n2)cc1 [Compound I-26, N-[2-(4-isopropylsulfonylphenyl)-5H-pyrrolo[2,3-b]pyrazin-7-yl]-4,5,6,7-tetrahydrothieno[3,2-c]pyridine-2-carboxamide] | ≤ 10 nM | 
27 | CC(C)S(=O)(=O)c1ccc(-c2cnc3[nH]cc(NC(=O)c4cc5c(s4)CNCC5)c3n2)cc1 [Compound I-27, N-[2-(4-isopropylsulfonylphenyl)-5H-pyrrolo[2,3-b]pyrazin-7-yl]-4,5,6,7-tetrahydrothieno[2,3-c]pyridine-2-carboxamide] | ≤ 10 nM | 
